Experimental data reported in patent EP0188781A1, “1-Oxa-1-dethia-cephalosporin compounds and antibacterial agent comprising the same” (Merck & Co., Inc., priority 1984, dated 1986).

Legend:
[1] = system: Staphylococcus aureus Smith; experiment: Minimum inhibitory concentration (MIC) in vitro, antibacterial spectrum; type: cell-based
[2] = system: Staphylococcus aureus 209 P JC-1; experiment: as above; type: cell-based
[3] = system: Escherichia coli NIHJ JC-2; experiment: as above; type: cell-based
[4] = system: Escherichia coli GN206; experiment: as above; type: cell-based
[5] = system: Salmonella typhimurium LT-2; experiment: as above; type: cell-based
[6] = system: Proteus mirabilis GN79; experiment: as above; type: cell-based
[7] = system: Proteus vulgaris GN76; experiment: as above; type: cell-based
[8] = system: Proteus rettgeri GN624; experiment: as above; type: cell-based
[9] = system: Serratia marcescens No. 2; experiment: as above; type: cell-based
[10] = system: Pseudomonas aeruginosa MB3833; experiment: as above; type: cell-based
[11] = system: Pseudomonas aeruginosa MB3829; experiment: as above; type: cell-based
[12] = system: Pseudomonas aeruginosa E-2; experiment: as above; type: cell-based
[13] = system: Streptococcus faecalis ATCC8043; experiment: as above; type: cell-based
[14] = system: Streptococcus faecalis W-73; experiment: as above; type: cell-based
[15] = system: Streptococcus faecalis W-74; experiment: as above; type: cell-based
[16] = system: Streptococcus faecalis W-75; experiment: as above; type: cell-based
[17] = system: Pseudomonas aeruginosa; experiment: Antibacterial activity in vitro, summary in words; type: cell-based; conditions: statement in words on Table 1
Source text: Besides, the compounds of Examples 1, 2, 4, 5 and 7 advantageously are also effective against Pseudomonas aeruginosa.

[18] = Concentration in serum after subcutaneous administration to mice, bioassay with Escherichia coli; type: in vivo; conditions: mouse, sc, 25 mg/kg subcutaneously
Source text: For the serum which was separated from the blood samples, the concentration in the serum of the compound administered was bioassayed using Escherichia coli as assay microorganism.

[19] = system: Streptococcus faecalis; experiment: Antibacterial activity in vitro, summary in words; type: cell-based; conditions: statement in words on Table 1

| SMILES | Minimum inhibitory concentration (MIC) [1] | Minimum inhibitory concentration (MIC) [2] | Minimum inhibitory concentration (MIC) [3] | Minimum inhibitory concentration (MIC) [4] | Minimum inhibitory concentration (MIC) [5] | Minimum inhibitory concentration (MIC) [6] | Minimum inhibitory concentration (MIC) [7] | Minimum inhibitory concentration (MIC) [8] | Minimum inhibitory concentration (MIC) [9] | Minimum inhibitory concentration (MIC) [10] | Minimum inhibitory concentration (MIC) [11] | Minimum inhibitory concentration (MIC) [12] | Minimum inhibitory concentration (MIC) [13] | Minimum inhibitory concentration (MIC) [14] | Minimum inhibitory concentration (MIC) [15] | Minimum inhibitory concentration (MIC) [16] | other results |
| --- | --- | --- | --- | --- | --- | --- | --- | --- | --- | --- | --- | --- | --- | --- | --- | --- | --- |
| CCN1CCN(C(=O)NC(C(=O)N[C@@H]2C(=O)N3C(C(=O)O)=C(CSc4nc(=O)c(O)nn4C)CO[C@H]23)c2csc(N)n2)C(=O)C1=O (single isomer, unassigned) [Compound No. 7] | 1.56 | 0.78 | 0.10 | 1.56 | 0.10 | 50 | 0.025 | 0.39 | 0.20 | 12.5 | 12.5 | 25 | 0.78 | 100 | 25 | 12.5 | effective against Pseudomonas aeruginosa [17]: effective; concentration at 0.5 h ([18]; 1/2 hour): 32000 ng/mL; concentration at 0.25 h ([18]; 1/4 hour): 34000 ng/mL; concentration at 5 min ([18]; 1/12 hour): 25000 ng/mL; concentration at 1 h ([18]; 1 hour): 13000 ng/mL |
| CO/N=C(\C(=O)N[C@@H]1C(=O)N2C(C(=O)O)=C(CSc3nc(=O)c(=O)[nH]n3C)CS[C@H]12)c1csc(N)n1 [Ceftriaxone, reference compound] | 3.13 | 1.56 | 0.10 | 0.78 | 0.05 | 0.025 | 0.025 | 0.39 | 0.10 | 50 | 12.5 | 100 | 3.13 | 100 | 100 | 1.56 |  |
| CO/N=C(\C(=O)N[C@@H]1C(=O)N2C(C(=O)O)=C(CSc3nc(=O)c(O)nn3C)CO[C@H]12)c1csc(N)n1 [Compound No. 3, (6R,7R)-7-[(Z)-2-(2-aminothiazol-4-yl)-2-(methoxyimino)acetamido]-3-(2,5-dihydro-6-hydroxy-2-methyl-5-oxo-1,2,4-triazin-3-yl) thiomethyl-l-oxa-l-dethia-ceph-3-em-4-carboxylic acid] | 0.78 | 0.78 | 0.10 | 3.13 | 0.05 | 0.05 | 0.10 | 0.39 | 0.39 | 25 | 12.5 | 50 | 12.5 | 50 | 50 | 0.39 |  |
| CCO/N=C(\C(=O)N[C@@H]1C(=O)N2C(C(=O)O)=C(CSc3nc(=O)c(O)nn3C)CO[C@H]12)c1csc(N)n1 [Compound No. 4, (6R,7R)-7-[(Z)-2-(2-aminothiazol-4-yl)-2-(ethoxyimino)acetamido]-3-(2,5-dihydro-6-hydroxy-2-methyl-5-oxo-l,2,4-triazin-3-yl) thiomethyl-l-oxa-l-dethia-ceph-3-em-4-carboxylic acid] | 1.56 | 0.78 | 0.10 | 1.56 | 0.10 | 0.025 | 0.05 | 0.39 |  | 6.25 |  | 25 | 25 | 100 |  | 0.20 | effective against Pseudomonas aeruginosa [17]: effective |
| C[C@@H]1O[C@@H]2[C@H](NC(=O)C(NC=O)c3csc(N)n3)C(=O)N2C(C(=O)O)=C1CSc1nc(=O)c(O)nn1C (stereo partly drawn) [Compound No. 6, (6R,7R)-7-[2-(2-aminothiazol-4-yl)-2-(form-amido)acetamido]-(2S)-2-methyl-3-(2,5-dihydro-6-hydroxy-2-methyl-5-oxo-1,2,4-triazin-3-yl) thiomethyl-l-oxa-l-dethia-ceph-3-em-4-carboxylic acid] | 1.56 | 0.78 | 0.10 | 1.56 | 0.025 | 0.10 | 50 | 0.10 | 0.20 | 100 | 50 | 100 | 12.5 | 100 | 50 | 6.24 | effective against Streptococcus faecalis [19]: effective |
| Cn1nc(O)c(=O)nc1SCC1=C(C(=O)O)N2C(=O)[C@@H](NC(=O)C(NC=O)c3csc(N)n3)[C@H]2OC1 (stereo partly drawn) [Compound No. 8, (6R,7R)-7-[2-(2-aminothiazol-4-yl)-2-(form-amido)acetamido]-3-(2,5-dihydro-6-hydroxy-2-methyl-5-oxo-1,2,4-triazin-3-yl)thiomethyl-l-oxa-l-dethia-ceph-3-em-4-carboxylic acid] | 1.56 | 1.56 | 0.05 | 1.56 | 0.025 | 0.10 | 100 | 0.10 | 0.20 | 100 | 100 | 100 | 25 | 100 | 50 | 6.24 |  |
| CO[C@@]1(NC(=O)C(C(=O)O)c2ccc(O)cc2)C(=O)N2C(C(=O)O)=C(CSc3nnnn3C)CO[C@@H]21 (some centres unmarked) [Latamoxef, reference compound] | 3.13 | 3.13 | 0.10 | 0.39 | 0.05 | 0.10 | 0.20 | 0.05 | 0.10 | 6.25 | 12.5 | 6.25 | 25 | 100 | 100 | 100 |  |
